Laboratory results published in patent US20040029965A1, “Formulations for reducing or eliminating toxicity of enviromental hormones containing ursodeoxycholic acid” (priority 2000, published 2004).

Experiments:
C57B1/6J mice [1] = assay: Blood (serum) biochemical changes in mice by a single subcutaneous injection of TCDD; assay type: in vivo
Description: (§1) Male C57B1/6J mice of 5 weeks old having the average weight of 18-22 g which had been bred in CRJ (Charles River in Japan) were purchased and used in this example as experimental animals. Those mice were acclimated under the constant breeding condition, i.e. the temperature of 24±1° C., the humidity of 60±10% and the light and darkness cycle of 12 hours, for one week and thereafter, utilized in the experiment.
(§2) 2,3,7,8-tetrachlorodibenzo-p-dioxin (TCDD) dissolved in toluene (purity of 95% or more as a result of gas chromatography analysis), manufactured by Chem. Services Inc. in USA, was volatilized with nitrogen to obtain powder. The obtained powder was dissolved in a mixed solvent containing acetone and corn oil with a volume ratio of 1:6. The resulting solution each containing 110, 27.5 and 6.9 μg/kg of TCDD was subcutaneously injected to mice at a volume of 5 ml per body weight. […] The mice were supplied with the feed from 10 days before (pre-administration) to 60 days after administration of TCDD (post-administration).
Upon completion of the experiment for 60 days, the experimental animals were fasted for 24 hours and anesthetized with ether. Then, they were abdominally incised and blood was gathered from abdominal vena cava. They were sacrificed by the release of blood. Liver, kidneys, testes and epididymides were extracted and all the extracted organs were weighed. Only the testes were separately kept and observed under optical and electron microscopes. For biochemical finding test, serum was separated from blood with a centrifuge and the separated serum was analyzed with an automated blood biochemical analyzer, Dimension (Dupont, USA). Blood was put to another blood gathering bottle and then, analyzed with an automated blood cell analyzer, Celldyn (Abbott, USA).
(§3) The results are expressed as Mean±Standard Deviation values. For statistical analysis of the body weight, feed and water uptake, biochemical findings, hematological findings and the weight of organ in an acute toxicity test, verification was performed by one way analysis of variance (ANOVA) in case of equal distribution. In case significance was recognized in ANOVA, the Student's t-test was performed in the levels of p<0.05 and p<0.01.
For biochemical findings in the serum, the levels of glucose (GLU), GOT, GPT, Triglyceride (TG), high density lipoprotein (HDL-C), low density lipoprotein (LDL-C) and alkaline phosphatase (ALP) in serum were measured and the results are shown in the following.

C57B1/6J mice [2] = assay: Changes in body weight of mice after a single subcutaneous injection of TCDD; assay type: in vivo; conditions: for Weight (body weight): at sacrifice
Description: as §1
The Experimental animals were supplied with Purina powdered feed (purchased from Hae Eun Trade) and supplied with water ad libitum. All the animals were weighed twice a week during experimentation.
as §2, §3

[3] = TCDD 6.9 μg/kg + UDCA 0.125 wt %
[4] = TCDD 6.9 μg/kg + UDCA 0.25 wt %
[5] = TCDD 27.5 μg/kg + UDCA 0.125 wt %
[6] = TCDD 27.5 μg/kg + UDCA 0.25 wt %
[7] = TCDD 27.5 μg/kg + UDCA 0.5 wt %

C[C@H](CCC(=O)O)[C@H]1CC[C@H]2[C@@H]3[C@@H](O)C[C@@H]4C[C@H](O)CC[C@]4(C)[C@H]3CC[C@]12C [UDCA, 3α, 7β-dihydroxy-5β-cholanoic acid]
ALP (C57B1/6J mice [1]; [3]): 66.78 ± 7.21 IU/l
GLU (C57B1/6J mice [1]; [3]): 128.00 ± 27.26 mg/dL
GOT (C57B1/6J mice [1]; [3]): 49.80 ± 2.74 IU/l
GPT (C57B1/6J mice [1]; [3]): 23.50 ± 8.32 IU/l
HDL-C (C57B1/6J mice [1]; [3]): 45.67 ± 2.74 mg/dL
LDL-C (C57B1/6J mice [1]; [3]): 14.56 ± 6.28 mg/dL
TG (C57B1/6J mice [1]; [3]): 79.56 ± 1129 mg/dL
ALP (C57B1/6J mice [1]; [4]): 72.05 ± 6.63 IU/l
GLU (C57B1/6J mice [1]; [4]): 104.60 ± 24.87 mg/dL
GOT (C57B1/6J mice [1]; [4]): 57.30 ± 4.83 IU/l
GPT (C57B1/6J mice [1]; [4]): 24.00 ± 6.39 IU/l
HDL-C (C57B1/6J mice [1]; [4]): 46.30 ± 5.08 mg/dL
LDL-C (C57B1/6J mice [1]; [4]): 21.20 ± 5.25 mg/dL
TG (C57B1/6J mice [1]; [4]): 75.90 ± 11.55 mg/dL
ALP (C57B1/6J mice [1]; TCDD 6.9 μg/kg + UDCA 0.5 wt %): 85.24 ± 10.28 IU/l
GLU (C57B1/6J mice [1]; TCDD 6.9 μg/kg + UDCA 0.5 wt %): 125.50 ± 14.98 mg/dL
GOT (C57B1/6J mice [1]; TCDD 6.9 μg/kg + UDCA 0.5 wt %): 47.11 ± 1.9 IU/l
GPT (C57B1/6J mice [1]; TCDD 6.9 μg/kg + UDCA 0.5 wt %): 18.78 ± 5.07 IU/l
HDL-C (C57B1/6J mice [1]; TCDD 6.9 μg/kg + UDCA 0.5 wt %): 44.83 ± 2.04 mg/dL
LDL-C (C57B1/6J mice [1]; TCDD 6.9 μg/kg + UDCA 0.5 wt %): 28.33 ± 4.63 mg/dL
TG (C57B1/6J mice [1]; TCDD 6.9 μg/kg + UDCA 0.5 wt %): 84.20 ± 7.66 mg/dL
ALP (C57B1/6J mice [1]; [5]): 75.14 ± 18.33 IU/l
GLU (C57B1/6J mice [1]; [5]): 55.22 ± 9.34 mg/dL
GOT (C57B1/6J mice [1]; [5]): 75.22 ± 6.38 IU/l
GPT (C57B1/6J mice [1]; [5]): 54.67 ± 23.28 IU/l
HDL-C (C57B1/6J mice [1]; [5]): 34.78 ± 4.35 mg/dL
LDL-C (C57B1/6J mice [1]; [5]): 2.40 ± 1.14 mg/dL
TG (C57B1/6J mice [1]; [5]): 98.78 ± 17.14 mg/dL
ALP (C57B1/6J mice [1]; [6]): 79.63 ± 6.07 IU/l
GLU (C57B1/6J mice [1]; [6]): 82.44 ± 13.04 mg/dL
GOT (C57B1/6J mice [1]; [6]): 58.67 ± 5.54 IU/l
GPT (C57B1/6J mice [1]; [6]): 42.11 ± 22.05 IU/l
HDL-C (C57B1/6J mice [1]; [6]): 37.44 ± 3.64 mg/dL
LDL-C (C57B1/6J mice [1]; [6]): 4.29 ± 4.03 mg/dL
TG (C57B1/6J mice [1]; [6]): 97.00 ± 17.68 mg/dL
ALP (C57B1/6J mice [1]; [7]): 80.57 ± 14.52 IU/l
GLU (C57B1/6J mice [1]; [7]): 64.22 ± 9.35 mg/dL
GOT (C57B1/6J mice [1]; [7]): 96.67 ± 31.63 IU/l
GPT (C57B1/6J mice [1]; [7]): 45.38 ± 21.74 IU/l
HDL-C (C57B1/6J mice [1]; [7]): 47.00 ± 7.66 mg/dL
LDL-C (C57B1/6J mice [1]; [7]): 15.33 mg/dL
TG (C57B1/6J mice [1]; [7]): 133.33 ± 13.17 mg/dL
body weight (C57B1/6J mice [2]; TCDD 6.9 μg/kg + UDCA 0.125 wt %, 0 day): 19.77 ± 0.21
body weight (C57B1/6J mice [2]; TCDD 6.9 μg/kg + UDCA 0.125 wt %, 12 days): 21.95 ± 0.28
body weight (C57B1/6J mice [2]; TCDD 6.9 μg/kg + UDCA 0.125 wt %, 22 days): 23.16 ± 0.32
body weight (C57B1/6J mice [2]; TCDD 6.9 μg/kg + UDCA 0.125 wt %, 32 days): 24.15 ± 0.38
body weight (C57B1/6J mice [2]; TCDD 6.9 μg/kg + UDCA 0.125 wt %, 39 days): 25.21 ± 0.46
body weight (C57B1/6J mice [2]; TCDD 6.9 μg/kg + UDCA 0.125 wt %, 50 days): 26.62 ± 0.56
body weight (C57B1/6J mice [2]; TCDD 6.9 μg/kg + UDCA 0.125 wt %, 59 days): 27.06 ± 0.60
Weight (body weight) (C57B1/6J mice [2]; [3]): 24.12 ± 1.83 g
body weight (C57B1/6J mice [2]; TCDD 6.9 μg/kg + UDCA 0.25 wt %, 0 day): 20.13 ± 0.34
body weight (C57B1/6J mice [2]; TCDD 6.9 μg/kg + UDCA 0.25 wt %, 12 days): 22.18 ± 0.38
body weight (C57B1/6J mice [2]; TCDD 6.9 μg/kg + UDCA 0.25 wt %, 22 days): 23.81 ± 0.43
body weight (C57B1/6J mice [2]; TCDD 6.9 μg/kg + UDCA 0.25 wt %, 32 days): 24.21 ± 0.47
body weight (C57B1/6J mice [2]; TCDD 6.9 μg/kg + UDCA 0.25 wt %, 39 days): 25.69 ± 0.45
body weight (C57B1/6J mice [2]; TCDD 6.9 μg/kg + UDCA 0.25 wt %, 50 days): 27.15 ± 0.46
body weight (C57B1/6J mice [2]; TCDD 6.9 μg/kg + UDCA 0.25 wt %, 59 days): 27.74 ± 0.48
Weight (body weight) (C57B1/6J mice [2]; [4]): 24.72 ± 1.39 g
body weight (C57B1/6J mice [2]; TCDD 6.9 μg/kg + UDCA 0.5 wt %, 0 day): 19.97 ± 0.28
body weight (C57B1/6J mice [2]; TCDD 6.9 μg/kg + UDCA 0.5 wt %, 12 days): 21.81 ± 0.32
body weight (C57B1/6J mice [2]; TCDD 6.9 μg/kg + UDCA 0.5 wt %, 22 days): 23.26 ± 0.37
body weight (C57B1/6J mice [2]; TCDD 6.9 μg/kg + UDCA 0.5 wt %, 32 days): 24.28 ± 0.50
body weight (C57B1/6J mice [2]; TCDD 6.9 μg/kg + UDCA 0.5 wt %, 39 days): 25.22 ± 0.49
body weight (C57B1/6J mice [2]; TCDD 6.9 μg/kg + UDCA 0.5 wt %, 50 days): 27.15 ± 0.49
body weight (C57B1/6J mice [2]; TCDD 6.9 μg/kg + UDCA 0.5 wt %, 59 days): 27.06 ± 0.56
Weight (body weight) (C57B1/6J mice [2]; TCDD 6.9 μg/kg + UDCA 0.5 wt %): 24.19 ± 1.38 g
body weight (C57B1/6J mice [2]; TCDD 27.5 μg/kg + UDCA 0.125 wt %, 0 day): 19.80 ± 0.25
body weight (C57B1/6J mice [2]; TCDD 27.5 μg/kg + UDCA 0.125 wt %, 12 days): 22.04 ± 0.26
body weight (C57B1/6J mice [2]; TCDD 27.5 μg/kg + UDCA 0.125 wt %, 22 days): 23.59 ± 0.28
body weight (C57B1/6J mice [2]; TCDD 27.5 μg/kg + UDCA 0.125 wt %, 32 days): 24.17 ± 0.33
body weight (C57B1/6J mice [2]; TCDD 27.5 μg/kg + UDCA 0.125 wt %, 39 days): 25.48 ± 0.36
body weight (C57B1/6J mice [2]; TCDD 27.5 μg/kg + UDCA 0.125 wt %, 50 days): 26.63 ± 0.28
body weight (C57B1/6J mice [2]; TCDD 27.5 μg/kg + UDCA 0.125 wt %, 59 days): 26.93 ± 0.34
Weight (body weight) (C57B1/6J mice [2]; [5]): 24.58 ± 1.07 g
body weight (C57B1/6J mice [2]; TCDD 27.5 μg/kg + UDCA 0.25 wt %, 0 day): 19.96 ± 0.30
body weight (C57B1/6J mice [2]; TCDD 27.5 μg/kg + UDCA 0.25 wt %, 12 days): 22.22 ± 0.29
body weight (C57B1/6J mice [2]; TCDD 27.5 μg/kg + UDCA 0.25 wt %, 22 days): 23.56 ± 0.37
body weight (C57B1/6J mice [2]; TCDD 27.5 μg/kg + UDCA 0.25 wt %, 32 days): 24.34 ± 0.38
body weight (C57B1/6J mice [2]; TCDD 27.5 μg/kg + UDCA 0.25 wt %, 39 days): 25.38 ± 0.37
